This note sets out measurements from patent US9938322B2, “β-hairpin peptidomimetics” (priority 2013, dated 2018).

*1 amine or outer side, *2 acyl side, *3 side chain or, on linkers, in order; H or OH if unused. Where a SMILES comes first, the peptide text is derived from it. Side-chain parts run from the residue outwards. [ ]: non-standard residue; d: D form. The star is where a group is joined. Ala(4-thiazolyl) = N[C@@H](Cc1cscn1)C(=O)O; Cha = N[C@@H](CC1CCCCC1)C(=O)O; NH(3-picolyl) = c1cncc(CN*)c1; Agp = N=C(N)NC[C@H](N)C(=O)O; Tle = CC(C)(C)[C@H](N)C(=O)O; dDab = NCC[C@@H](N)C(=O)O; hSer = N[C@@H](CCO)C(=O)O; Orn = NCCC[C@H](N)C(=O)O; dDap = NC[C@@H](N)C(=O)O; Dab = NCC[C@H](N)C(=O)O; Dap = NC[C@H](N)C(=O)O; CO = O=C([*:1])[*:2]; X3 = O=C(C(O)CO)*; NHiPr = CC(C)N*

The test system of the data set is human red blood cells (hRBC). As to the kind of experiment: Hemolysis of human red blood cells. Format: cell-based. Particulars: red cells of human, 1 h, 100. The method, then:
Lyophilized peptides were weighed on a Microbalance (Mettler MT5) and dissolved in sterile water to a final concentration of 1 mg/ml. Stock solutions were kept at +4° C., light protected.
The peptides were tested for their hemolytic activity against human red blood cells (hRBC). Fresh hRBC were washed three times with phosphate buffered saline (PBS) and centrifuged for 10 min at 2000×g. Compounds (100 μg/ml) were incubated with 20% hRBC (v/v) for 1 h at 37° C. and shaking at 300 rpm. The final erythrocyte concentration was approximately 0.9×10^9 cells/ml. A value of 0% and 100% cell lyses, respectively, was determined by incubation of hRBC in the presence of PBS containing 0.001% acetic acid and 2.5% Triton X-100 in H2O, respectively. The samples were centrifuged, the supernatants were 8-fold diluted in PBS buffer and the optical densities (OD) were measured at 540 nm. The 100% lyses value (OD540H2O) gave an OD540 of approximately 0.5-1.0.
Percent hemolysis was calculated as follows: (OD540peptide/OD540H2O)×100%.
For the compound `C[C@@H]1NC(=O)[C@H](C(C)(C)C)NC(=O)[C@H](CCN)NC(=O)[C@H](Cc2c[nH]c3ccccc23)NC(=O)[C@H](CCN)NC(=O)[C@@H](CCN)NC(=O)[C@H](CCCN)NC(=O)[C@H](CCN)NC(=O)[C@H](CC2CCCCC2)NC(=O)[C@H](CNC(=O)C(O)CO)NC(=O)[C@H](Cc2c[nH]c3ccccc23)NC(=O)[C@@H]2CCCN2C(=O)[C@H]2CCCN2C(=O)[C@H](CO)NC1=O` (stereo partly shown) [compound 13] (cyclo(W[Dap](X3)[Cha][Dab][Orn][dDab][Dab]W[Dab][Tle]AS[dP]P)), the “Hemolysis at 100 μg/ml” value came to 2%. Turning to `C[C@@H]1NC(=O)[C@H](C(C)(C)C)NC(=O)[C@H](CCN)NC(=O)[C@H](Cc2c[nH]c3ccccc23)NC(=O)[C@H](CCN)NC(=O)[C@@H](CCN)NC(=O)[C@H](CCCN)NC(=O)[C@H](CCN)NC(=O)[C@H](CC2CCCCC2)NC(=O)[C@H](CNC(=O)[C@@H](N)[C@@H](C)O)NC(=O)[C@H](Cc2c[nH]c3ccccc23)NC(=O)[C@@H]2CCCN2C(=O)[C@H]2CCCN2C(=O)[C@H](CO)NC1=O` [compound 14] (cyclo(W[Dap](Thr)[Cha][Dab][Orn][dDab][Dab]W[Dab][Tle]AS[dP]P)), the “Hemolysis at 100 μg/ml” value came to 0%. Regarding `CC(=O)N[C@H](C(=O)NC[C@@H]1NC(=O)[C@H](Cc2c[nH]c3ccccc23)NC(=O)[C@@H]2CCCN2C(=O)[C@H]2CCCN2C(=O)[C@H](CO)NC(=O)[C@H](C)NC(=O)[C@H](C(C)(C)C)NC(=O)[C@H](CCN)NC(=O)[C@H](Cc2c[nH]c3ccccc23)NC(=O)[C@H](CCN)NC(=O)[C@@H](CCN)NC(=O)[C@H](CCCN)NC(=O)[C@H](CCN)NC(=O)[C@H](CC2CCCCC2)NC1=O)[C@@H](C)O` [compound 15] (cyclo(W[Dap]([Thr-Ac])[Cha][Dab][Orn][dDab][Dab]W[Dab][Tle]AS[dP]P)), the “Hemolysis at 100 μg/ml” value turned out to be 1%. On to `C[C@@H]1NC(=O)[C@H](C(C)(C)C)NC(=O)[C@H](CCN)NC(=O)[C@H](Cc2c[nH]c3ccccc23)NC(=O)[C@H](CCN)NC(=O)[C@@H](CCN)NC(=O)[C@H](CCCN)NC(=O)[C@H](CCN)NC(=O)[C@H](CC2CCCCC2)NC(=O)[C@H](CNC(=O)NCc2cccnc2)NC(=O)[C@H](Cc2c[nH]c3ccccc23)NC(=O)[C@@H]2CCCN2C(=O)[C@H]2CCCN2C(=O)[C@H](CO)NC1=O` [compound 16] (cyclo(W[Dap]([CO-NH(3-picolyl)])[Cha][Dab][Orn][dDab][Dab]W[Dab][Tle]AS[dP]P)), for which the “Hemolysis at 100 μg/ml” value is recorded as 7%. With `CC(C)NC(=O)NC[C@@H]1NC(=O)[C@H](Cc2c[nH]c3ccccc23)NC(=O)[C@@H]2CCCN2C(=O)[C@H]2CCCN2C(=O)[C@H](CO)NC(=O)[C@H](C)NC(=O)[C@H](C(C)(C)C)NC(=O)[C@H](CCN)NC(=O)[C@H](Cc2c[nH]c3ccccc23)NC(=O)[C@H](CCN)NC(=O)[C@@H](CCN)NC(=O)[C@H](CCCN)NC(=O)[C@H](CCN)NC(=O)[C@H](CC2CCCCC2)NC1=O` [compound 17] (cyclo(W[Dap]([CO-NHiPr])[Cha][Dab][Orn][dDab][Dab]W[Dab][Tle]AS[dP]P)) the figure was 6%; with `C[C@@H]1NC(=O)[C@H](C(C)(C)C)NC(=O)[C@H](CCN)NC(=O)[C@H](Cc2c[nH]c3ccccc23)NC(=O)[C@H](CCN)NC(=O)[C@@H](CCN)NC(=O)[C@H](CCCN)NC(=O)[C@H](CCN)NC(=O)[C@H](CC2CCCCC2)NC(=O)[C@H](CCO)NC(=O)[C@H](Cc2c[nH]c3ccccc23)NC(=O)[C@@H]2CCCN2C(=O)[C@H]2CCCN2C(=O)[C@H](CO)NC1=O` [compound 18] (cyclo(W[hSer][Cha][Dab][Orn][dDab][Dab]W[Dab][Tle]AS[dP]P)), 3%; with `C[C@@H]1NC(=O)[C@H](C(C)(C)C)NC(=O)[C@H](CCN)NC(=O)[C@H](Cc2c[nH]c3ccccc23)NC(=O)[C@H](CCN)NC(=O)[C@@H](CN)NC(=O)[C@H](CCCN)NC(=O)[C@H](CCN)NC(=O)[C@H](CC2CCCCC2)NC(=O)[C@H](CO)NC(=O)[C@H](Cc2c[nH]c3ccccc23)NC(=O)[C@@H]2CCCN2C(=O)[C@H]2CCCN2C(=O)[C@H](CO)NC1=O` [compound 19] (cyclo(WS[Cha][Dab][Orn][dDap][Dab]W[Dab][Tle]AS[dP]P)), 3%. With `CC(C)NC(=O)NC[C@@H]1NC(=O)[C@H](C)NC(=O)[C@H](C(C)(C)C)NC(=O)[C@H](CCN)NC(=O)[C@H](Cc2c[nH]c3ccccc23)NC(=O)[C@H](CCN)NC(=O)[C@@H](CCN)NC(=O)[C@H](CCCN)NC(=O)[C@H](CCN)NC(=O)[C@H](CC2CCCCC2)NC(=O)[C@H](C)NC(=O)[C@H](Cc2c[nH]c3ccccc23)NC(=O)[C@@H]2CCCN2C(=O)[C@H]2CCCN2C1=O` [compound 20] (cyclo(WA[Cha][Dab][Orn][dDab][Dab]W[Dab][Tle]A[Dap]([CO-NHiPr])[dP]P)) the figure was 4%. With `C[C@@H]1NC(=O)[C@H](C(C)(C)C)NC(=O)[C@H](CCN)NC(=O)[C@H](Cc2c[nH]c3ccccc23)NC(=O)[C@H](CCN)NC(=O)[C@@H](CCN)NC(=O)[C@H](CCCN)NC(=O)[C@H](CCN)NC(=O)[C@H](Cc2ccc(O)cc2)NC(=O)[C@H](CO)NC(=O)[C@H](Cc2ccc(O)cc2)NC(=O)[C@@H]2CCCN2C(=O)[C@H]2CCCN2C(=O)[C@H](CO)NC1=O` [compound 21] (cyclo(YSY[Dab][Orn][dDab][Dab]W[Dab][Tle]AS[dP]P)) the figure was 1%; with `C[C@@H]1NC(=O)[C@H](C(C)(C)C)NC(=O)[C@H](CCN)NC(=O)[C@H](Cc2c[nH]c3ccccc23)NC(=O)[C@H](CCN)NC(=O)[C@@H](CCN)NC(=O)[C@H](CCCN)NC(=O)[C@H](CCN)NC(=O)[C@H](CC2CCCCC2)NC(=O)[C@H](CO)NC(=O)[C@H](Cc2cscn2)NC(=O)[C@@H]2CCCN2C(=O)[C@H]2CCCN2C(=O)[C@H](CO)NC1=O` [compound 22] (cyclo([Ala(4-thiazolyl)]S[Cha][Dab][Orn][dDab][Dab]W[Dab][Tle]AS[dP]P)), 0%.

On to `C[C@@H]1NC(=O)[C@H](Cc2c[nH]c3ccccc23)NC(=O)[C@@H]2CCCN2C(=O)[C@H]2CCCN2C(=O)[C@H](CO)NC(=O)[C@H](CNC(=N)N)NC(=O)[C@H](C(C)(C)C)NC(=O)[C@H](CCN)NC(=O)[C@H](Cc2c[nH]c3ccccc23)NC(=O)[C@H](CCN)NC(=O)[C@@H](CCN)NC(=O)[C@H](CCCN)NC(=O)[C@H](CCN)NC(=O)[C@H](CC2CCCCC2)NC1=O` [compound 23] (cyclo(WA[Cha][Dab][Orn][dDab][Dab]W[Dab][Tle][Agp]S[dP]P)), for which the “Hemolysis at 100 μg/ml” value is given as 1.7%. With `CC(C)C[C@@H]1NC(=O)[C@@H]2CCCN2C(=O)[C@H]2CCCN2C(=O)[C@H](CO)NC(=O)[C@H](C)NC(=O)[C@H](C(C)(C)C)NC(=O)[C@H](CCN)NC(=O)[C@H](Cc2c[nH]c3ccccc23)NC(=O)[C@H](CCN)NC(=O)[C@H](CCN)NC(=O)[C@H](CCCN)NC(=O)[C@H](CCN)NC(=O)[C@H](Cc2ccc(O)cc2)NC(=O)[C@H](CO)NC1=O` [compound 24] (cyclo(LSY[Dab][Orn][Dab][Dab]W[Dab][Tle]AS[dP]P)) the figure was 1%; with `CC(C)C[C@@H]1NC(=O)[C@@H]2CCCN2C(=O)[C@H]2CCCN2C(=O)[C@H](CO)NC(=O)[C@H](C)NC(=O)[C@H](C(C)(C)C)NC(=O)[C@H](CCN)NC(=O)[C@H](Cc2c[nH]c3ccccc23)NC(=O)[C@H](CCN)NC(=O)[C@@H](CCN)NC(=O)[C@H](CCCCN)NC(=O)[C@H](CCN)NC(=O)[C@H](Cc2ccc(O)cc2)NC(=O)[C@H](CO)NC1=O` [compound 25] (cyclo(LSY[Dab]K[dDab][Dab]W[Dab][Tle]AS[dP]P)), 1%.
